# According to ChEMBL document CHEMBL3856234, “Development of Multifunctional Pyrimidinylthiourea Derivatives as Potential Anti-Alzheimer Agents” (J Med Chem, 2016):
# The source made the active and inactive calls. The rule behind the calls is not given here.
# Tests used:
# [1] = molecular target: T1, Acetylcholinesterase (Rattus norvegicus, UniProt P37136); experiment: Inhibition of rat cortex AChE using acetylthiocholine iodide as substrate measured after 20 mins by Ellman's method
# T1 sequence (P37136 whole entry): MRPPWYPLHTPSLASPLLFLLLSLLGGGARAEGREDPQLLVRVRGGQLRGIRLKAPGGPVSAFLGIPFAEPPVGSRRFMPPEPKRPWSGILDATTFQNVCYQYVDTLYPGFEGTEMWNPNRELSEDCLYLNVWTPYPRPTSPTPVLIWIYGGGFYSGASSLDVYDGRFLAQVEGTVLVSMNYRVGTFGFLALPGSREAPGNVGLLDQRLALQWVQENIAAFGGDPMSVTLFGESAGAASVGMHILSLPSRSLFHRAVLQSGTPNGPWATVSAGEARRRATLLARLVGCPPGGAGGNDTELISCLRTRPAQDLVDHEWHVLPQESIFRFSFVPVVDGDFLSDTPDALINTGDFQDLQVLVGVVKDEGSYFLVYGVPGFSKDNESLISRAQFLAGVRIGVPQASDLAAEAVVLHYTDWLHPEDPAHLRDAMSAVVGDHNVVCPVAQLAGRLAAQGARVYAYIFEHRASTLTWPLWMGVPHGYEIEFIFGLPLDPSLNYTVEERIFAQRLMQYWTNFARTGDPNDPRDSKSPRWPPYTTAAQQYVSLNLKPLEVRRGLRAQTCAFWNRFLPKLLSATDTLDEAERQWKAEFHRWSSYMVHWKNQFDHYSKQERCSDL
# [2] = Inhibition of rat serum BuChE using butyrylthiocholine as substrate measured after 20 mins by Ellman's method
# [3] = Cytotoxicity against human SH-SY5Y cells assessed as reduction in cell viability at 10 and 30 uM measured after 24 hrs by MTT assay; assay type: toxicity, cell-based
# [4] = Cytotoxicity against human SH-SY5Y cells assessed as reduction in cell viability at 100 uM measured after 24 hrs by MTT assay; assay type: toxicity, cell-based
# [5] = species: Rattus norvegicus; experiment: Selectivity index, ratio of IC50 for rat serum BuChE to IC50 for rat cortex AChE
# [6] = Inhibition of cupric ion-induced aggregation of amyloid beta (1 to 42) (unknown origin) at compound:amyloid beta (1 to 42):Cu2+ ratio of 2:1:1 measured after 24 hrs by TEM analysis
# [7] = species: Rattus norvegicus; experiment: Inhibition of rat serum BuChE at 40 uM using butyrylthiocholine as substrate measured after 20 mins by Ellman's method relative to control
# [8] = Antioxidant activity assessed as inhibition of Cu2+-induced CCA […] to 7-hydroxy-CCA by measuring decrease in hydroxyl radical production at 10 uM in presence of ascorbate by fluorescence assay
# [9] = Inhibition of cupric ion-induced aggregation of amyloid beta (1 to 42) (unknown origin) at 50 uM measured after 24 hrs by dot blot assay
# [10] = system: SH-SY5Y; experiment: Neuroprotective activity in human SH-SY5Y cells assessed as protection against Cu2+ induced amyloid-beta (1 to 42) neurotoxicity by measuring increase in cell viability at compound:amyloid-beta (1 to 42):Cu2+ ratio of 2:1:1 after 24 hrs by MTT assay relative to control; assay type: functional, cell-based
# [11] = Antioxidant activity assessed as trolox equivalent of AAPH radical scavenging activity preincubated for 10 mins followed by AAPH challenge measured every min for 180 mins by ORAC-FL assay; assay type: functional
# [12] = Permeability of the compound in PBS/EtOH (7:3) buffer measured after 10 hrs by PAMPA assay; assay type: ADME; settings: read-out: Peff
# [13] = Solubility of the compound in water measured after 24 hrs by HPLC analysis; assay type: physicochemical
# [14] = molecular target: T2, Acetylcholinesterase (Rattus norvegicus) (UniProt P37136); experiment: Inhibition of rat cortex AChE at 40 uM using acetylthiocholine iodide as substrate measured after 20 mins by Ellman's method relative to control
# T2 sequence (whole entry): T1 sequence (P37136 whole entry)
smiles,measurement,setting,value
CCNC(=S)Nc1cc(-n2cnc(C)c2)ncn1,IC50,[1],3.25 µM
C/C=C1\[C@H]2C=C(C)C[C@]1(N)c1ccc(=O)[nH]c1C2 [HUPERZINE A],IC50,[2],36.4 µM
same,IC50,[1],0.082 µM
same,Activity,[3],Non-Toxic
same,Activity,[4],Non-Toxic
same,Ratio IC50,[5],444
CCNC(=S)Nc1cc(-n2cnc(CN3CCCC3)c2)ncn1,inhibition,[6],Active
same,inhibition,[7],33.5%
same,inhibition,[8],Active
same,inhibition,[9],Active
same,Activity,[10],Active
same,Ratio IC50,[5],> 597
same,Activity (umolequiv/umol),[11],1.2
CCNC(=S)Nc1cc(-n2cnc(CN3CCOCC3)c2)ncn1,inhibition,[7],13.3%
same,IC50,[2],> 40 µM
same,Papp at 10 h,[12],0.35 ×10⁻⁶ cm/s
same,IC50,[1],0.304 µM
same,Ratio IC50,[5],> 132
same,Activity (umolequiv/umol),[11],1.48
CCNC(=S)Nc1cc(-n2cnc(CN(C)C)c2)ncn1,inhibition,[7],7.02%
same,IC50,[2],> 40 µM
same,Papp at 10 h,[12],3 ×10⁻⁶ cm/s
same,IC50,[1],0.153 µM
same,Ratio IC50,[5],> 261
same,Activity (umolequiv/umol),[11],1.17
CCNC(=S)Nc1cc(-n2cnc(CN(C)Cc3ccccc3)c2)ncn1.Cl,solubility at 24 h,[13],2740 µg/mL
CCNC(=S)Nc1cc(-n2cccc2)ncn1,IC50,[1],> 40 µM
same,inhibition,[14],13.8%
CCNC(=S)Nc1cc(-n2ccnn2)ncn1,IC50,[1],14.4 µM
same,inhibition,[14],61.5%
CC(=O)Nc1cc(-n2cccn2)ncn1,inhibition,[14],5.09%
CCNC(=S)Nc1cc(-n2cccn2)ncn1,IC50,[1],8.14 µM
same,inhibition,[14],77.3%
CCNC(=S)Nc1cc(-n2cnc([N+](=O)[O-])c2)ncn1,IC50,[1],0.17 µM
CCCc1cc(-n2cccn2)ncn1,inhibition,[14],9.88%
CCNC(=S)Nc1cc(-n2cnc(CN3CCCCCC3)c2)ncn1,IC50,[2],7.19 µM
same,Papp at 10 h,[12],5.3 ×10⁻⁶ cm/s
same,IC50,[1],0.121 µM
same,Ratio IC50,[5],59
same,Activity (umolequiv/umol),[11],1.24
CCNC(=S)Nc1cc(N2CCOCC2)ncn1,IC50,[1],23.2 µM
same,inhibition,[14],54.1%
CCNC(=S)Nc1cc(-n2cnc(C(=O)OC)c2)ncn1,IC50,[1],0.347 µM
CCCCNC(=S)Nc1cc(-n2cccn2)ncn1,IC50,[1],23.4 µM
same,inhibition,[14],66.6%
CCNC(=S)Nc1cc(-n2cnc(CN(CC)CC)c2)ncn1,inhibition,[7],20.2%
same,IC50,[2],> 40 µM
same,Papp at 10 h,[12],1 ×10⁻⁶ cm/s
same,IC50,[1],0.115 µM
same,Ratio IC50,[5],> 348
same,Activity (umolequiv/umol),[11],1.31
S=C(NCc1ccccc1)Nc1cc(-n2cccn2)ncn1,inhibition,[14],17.3%
CCNC(=S)Nc1cc(-n2cncn2)ncn1,IC50,[1],1.05 µM
same,inhibition,[14],66.6%
CCNC(=O)Nc1cc(-n2cccn2)ncn1,inhibition,[14],22.1%
S=C(NCc1cccc(Cl)c1)Nc1cc(-n2cccn2)ncn1,inhibition,[14],0%
CCNC(=S)Nc1cc(-n2ccnc2)nc(C)n1,IC50,[1],8.72 µM
same,inhibition,[14],71.4%
c1ccc(CNc2cc(-n3cccn3)ncn2)cc1,inhibition,[14],10.8%
CC(C)(C)NC(=S)Nc1cc(-n2cccn2)ncn1,inhibition,[14],11.3%
CNC(=S)Nc1cc(-n2cccn2)ncn1,inhibition,[14],46%
CCNC(=S)Nc1cc(-n2cnc(Cl)c2)ncn1,IC50,[1],0.615 µM
CCCNC(=S)Nc1cc(-n2cccn2)ncn1,IC50,[1],22 µM
same,inhibition,[14],64%
CCNC(=S)Nc1cc(-n2cnc(CN(C)Cc3ccccc3)c2)ncn1,IC50,[2],15.2 µM
same,Papp at 10 h,[12],8.8 ×10⁻⁶ cm/s
same,IC50,[1],0.181 µM
same,solubility at 24 h,[13],58 µg/mL
CCNC(=S)Nc1cc(N2CCCC2)ncn1,IC50,[1],> 40 µM
same,inhibition,[14],39.2%
CCNCc1cn(-c2cc(NC(=S)NCC)ncn2)cn1,inhibition,[7],21.5%
same,IC50,[2],> 40 µM
same,IC50,[1],0.342 µM
same,Ratio IC50,[5],> 117
same,Activity (umolequiv/umol),[11],1.33
CCNC(=S)Nc1cc(-n2cnc(C=O)c2)ncn1,inhibition,[7],4.63%
same,IC50,[2],> 40 µM
same,IC50,[1],0.166 µM
same,Ratio IC50,[5],> 241
same,Activity (umolequiv/umol),[11],0.31
